In ChEMBL document CHEMBL1135903 (J Med Chem, 2002):
Several values for one entry are separate records, joined by “and”; a condition that tells them apart may be missing. Equal values may be shown once.

Columns and labels:
[1] = target: Carbonic anhydrase 1 (Homo sapiens, UniProt P00915)
Description: Inhibitory activity against Human carbonic anhydrase I

[2] = target: T1, Carbonic anhydrase 4 (Bos taurus, UniProt Q95323)
T1 sequence (Q95323 whole entry): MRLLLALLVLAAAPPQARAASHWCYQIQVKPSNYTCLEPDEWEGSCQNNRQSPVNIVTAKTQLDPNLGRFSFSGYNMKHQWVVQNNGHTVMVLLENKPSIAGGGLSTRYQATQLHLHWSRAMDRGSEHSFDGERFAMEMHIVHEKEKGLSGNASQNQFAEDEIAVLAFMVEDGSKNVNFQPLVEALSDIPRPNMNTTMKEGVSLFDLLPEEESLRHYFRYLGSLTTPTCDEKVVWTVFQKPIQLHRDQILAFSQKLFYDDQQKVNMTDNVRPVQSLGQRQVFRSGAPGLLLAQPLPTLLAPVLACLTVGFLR
Description: Inhibitory activity against bovine carbonic anhydrase IV

Sequence of Carbonic anhydrase 1 (P00915 whole entry): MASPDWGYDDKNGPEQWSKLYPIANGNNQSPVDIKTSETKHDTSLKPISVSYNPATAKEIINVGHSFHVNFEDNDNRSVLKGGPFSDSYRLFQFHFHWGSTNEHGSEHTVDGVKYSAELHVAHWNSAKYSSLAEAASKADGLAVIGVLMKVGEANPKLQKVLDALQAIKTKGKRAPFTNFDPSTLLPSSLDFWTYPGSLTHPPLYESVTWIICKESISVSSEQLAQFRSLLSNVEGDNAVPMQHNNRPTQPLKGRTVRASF

Ki [1] | Ki [2] | Structure (SMILES)
49 nM | 21 nM | NS(=O)(=O)c1cc(S(N)(=O)=O)c(NC(=O)CN(CCOCCOCCN(CC(=O)O)CC(=O)Nc2c(S(N)(=O)=O)cc(S(N)(=O)=O)c(Cl)c2Cl)CC(=O)O)c(Cl)c1Cl
430 nM | 155 nM | NS(=O)(=O)c1ccc(CCOC(=O)CN(CCOCCOCCN(CC(=O)O)CC(=O)O)CC(=O)O)cc1
200 nM | 23 nM | NS(=O)(=O)c1nnc(NC(=O)CCNC(=O)CN(CCN(CC(=O)O)CC(=O)O)CC(=O)O)s1
240 nM | 35 nM | NS(=O)(=O)c1ccc(NC(=O)CN(CCN(CC(=O)O)CC(=O)Nc2ccc(S(N)(=O)=O)cc2F)CC(=O)O)c(F)c1
7450 nM | 500 nM | NS(=O)(=O)c1cccc(NC(=O)CN(CCOCCOCCN(CC(=O)O)CC(=O)O)CC(=O)O)c1
175 nM | 56 nM | NS(=O)(=O)c1ccc(NC(=O)CN(CCN(CC(=O)O)c2ccccc2O)c2ccccc2O)c(Br)c1
1200 nM | 135 nM | NS(=O)(=O)c1ccc(CNC(=O)CN(CCN(CC(=O)O)c2ccccc2O)c2ccccc2O)cc1
1200 nM | 340 nM | NS(=O)(=O)c1ccc(CCOC(=O)CNCC(=O)O)cc1
515 nM | 114 nM | NS(=O)(=O)c1ccc(NC(=O)CNCC(=O)O)c(I)c1
400 nM | 145 nM | NS(=O)(=O)c1cc(S(N)(=O)=O)c(NC(=O)CNCC(=O)O)cc1Cl
105 nM | 34 nM | NS(=O)(=O)c1ccc(NC(=O)CN(CCN(CC(=O)O)CC(=O)Nc2ccc(S(N)(=O)=O)cc2Br)CC(=O)O)c(Br)c1
123 nM | 78 nM | NS(=O)(=O)c1ccc(NC(=O)CN(CCN(CC(=O)O)CC(=O)O)CC(=O)O)c(I)c1
1200 nM | 350 nM | NS(=O)(=O)c1ccc(COC(=O)CN(CC(=O)O)CC(=O)O)cc1
710 nM | 120 nM | Cn1nc(S(N)(=O)=O)s/c1=N/C(=O)CNCC(=O)O
21000 nM | 840 nM | NS(=O)(=O)c1ccc(NNC(=O)CN(CCN(CC(=O)O)c2ccccc2O)c2ccccc2O)cc1
410 nM | 240 nM | NS(=O)(=O)c1nnc(NC(=O)CN(CC(=O)O)CC(=O)O)s1
275 nM | 76 nM | Cn1nc(S(N)(=O)=O)s/c1=N/C(=O)CNCCNCC(=O)O
250 nM | 135 nM | NS(=O)(=O)c1cc(S(N)(=O)=O)c(NC(=O)CNCCNCC(=O)O)cc1Cl
1760 nM | 245 nM | NS(=O)(=O)c1ccc(CNC(=O)CNCCNCC(=O)O)cc1
23000 nM | 1520 nM | NS(=O)(=O)c1cccc(NC(=O)CN(CC(=O)O)CC(=O)O)c1
6300 nM | 330 nM | NS(=O)(=O)c1ccc(NC(=O)CN(CCN(CC(=O)O)CC(=O)O)CC(=O)O)cc1
23 nM | 4 nM | NS(=O)(=O)c1nc2ccc(NC(=O)CN(CCOCCOCCN(CC(=O)O)CC(=O)Nc3ccc4nc(S(N)(=O)=O)sc4c3)CC(=O)O)cc2s1
130 nM | 50 nM | NS(=O)(=O)c1ccc(NC(=O)CN(CCN(CC(=O)O)CC(=O)O)CC(=O)O)c(Br)c1
30500 nM | 930 nM | NS(=O)(=O)c1ccc(NNC(=O)CN(CC(=O)O)CC(=O)O)cc1

Ki [1] | Ki [2] | Structure (SMILES)
1000 nM | 136 nM | NS(=O)(=O)c1ccc(NC(=O)CN(CC(=O)O)CC(=O)O)c(F)c1
72 nM | 69 nM | NS(=O)(=O)c1cc(S(N)(=O)=O)c(NC(=O)CN(CCN(CC(=O)O)CC(=O)Nc2cc(Cl)c(S(N)(=O)=O)cc2S(N)(=O)=O)CC(=O)O)cc1Cl
620 nM | 53 nM | NS(=O)(=O)c1ccc(NC(=O)CN(CC(=O)O)CC(=O)O)c(Br)c1
240 nM | 123 nM | NS(=O)(=O)c1cc(S(N)(=O)=O)c(NC(=O)CN(CCN(CC(=O)O)c2ccccc2O)c2ccccc2O)cc1Cl
210 nM | 105 nM | NS(=O)(=O)c1cc(S(N)(=O)=O)c(NC(=O)CN(CCN(CC(=O)O)CC(=O)O)CC(=O)O)cc1Cl
76 nM | 24 nM | NS(=O)(=O)c1ccc(NC(=O)CN(CCOCCOCCN(CC(=O)O)CC(=O)O)CC(=O)O)c(I)c1
39 nM | 7 nM | NS(=O)(=O)c1nc2ccc(NC(=O)CN(CCOCCOCCN(CC(=O)O)CC(=O)O)CC(=O)O)cc2s1
23000 nM | 1500 nM | NS(=O)(=O)c1cccc(NC(=O)CNCC(=O)O)c1
450 nM | 165 nM | NS(=O)(=O)c1ccc(CCOC(=O)CN(CCN(CC(=O)O)CC(=O)OCCc2ccc(S(N)(=O)=O)cc2)CC(=O)O)cc1
650 nM | 75 nM | NS(=O)(=O)c1ccc(CCNC(=O)CN(CCN(CC(=O)O)CC(=O)O)CC(=O)O)cc1
850 nM | 335 nM | NS(=O)(=O)c1ccc(COC(=O)CN(CCN(CC(=O)O)CC(=O)O)CC(=O)O)cc1
1300 nM | 145 nM | NS(=O)(=O)c1ccc(NC(=O)CNCC(=O)O)c(F)c1
1260 nM | 350 nM | NS(=O)(=O)c1ccc(COC(=O)CNCC(=O)O)cc1
16 nM | 4 nM and 5 nM | NS(=O)(=O)c1nc2ccc(OC(=O)CN(CCN(CCN(CC(=O)O)CC(=O)Oc3ccc4nc(S(N)(=O)=O)sc4c3)CC(=O)O)CC(=O)O)cc2s1
85 nM | 25 nM | NS(=O)(=O)c1ccc(NC(=O)CN(CCOCCOCCN(CC(=O)O)CC(=O)Nc2ccc(S(N)(=O)=O)cc2Br)CC(=O)O)c(Br)c1
10000 nM | 860 nM | NS(=O)(=O)c1cccc(NC(=O)CN(CCN(CC(=O)O)c2ccccc2O)c2ccccc2O)c1
4000 nM | 170 nM | NS(=O)(=O)c1ccc(NC(=O)CN(CCOCCOCCN(CC(=O)O)CC(=O)O)CC(=O)O)cc1
610 nM | 48 nM | NS(=O)(=O)c1ccc(CNC(=O)CN(CCOCCOCCN(CC(=O)O)CC(=O)O)CC(=O)O)cc1
21800 nM | 950 nM | NS(=O)(=O)c1ccc(NNC(=O)CNCCNCC(=O)O)cc1
3300 nM | 240 nM | NS(=O)(=O)c1ccc(CCNC(=O)CN(CC(=O)O)CC(=O)O)cc1
43 nM | 5 nM | Cn1nc(S(N)(=O)=O)s/c1=N/C(=O)CN(CCN(CCN(CC(=O)O)CC(=O)/N=c1/sc(S(N)(=O)=O)nn1C)CC(=O)O)CC(=O)O
50 nM | 14 nM | NS(=O)(=O)c1nc2ccc(OC(=O)CNCC(=O)O)cc2s1
30 nM | 6 nM | NS(=O)(=O)c1nc2ccc(OCCOC(=O)CN(CCOCCOCCN(CC(=O)O)CC(=O)O)CC(=O)O)cc2s1
48 nM | 13 nM | NS(=O)(=O)c1nc2ccc(OC(=O)CN(CC(=O)O)CC(=O)O)cc2s1

Ki [1] | Ki [2] | Structure (SMILES)
65 nM | 14 nM | NS(=O)(=O)c1nc2ccc(NC(=O)CNCC(=O)O)cc2s1
50 nM | 36 nM | NS(=O)(=O)c1cc(S(N)(=O)=O)c(NC(=O)CN(CCOCCOCCN(CC(=O)O)CC(=O)Nc2cc(Cl)c(S(N)(=O)=O)cc2S(N)(=O)=O)CC(=O)O)cc1Cl
8100 nM | 650 nM | NS(=O)(=O)c1ccccc1NC(=O)CN(CCN(CC(=O)O)CC(=O)Nc1ccccc1S(N)(=O)=O)CC(=O)O
66 nM | 16 nM | Cn1nc(S(N)(=O)=O)s/c1=N/C(=O)CN(CCOCCOCCN(CC(=O)O)CC(=O)O)CC(=O)O
415 nM | 265 nM | NS(=O)(=O)c1nnc(NC(=O)CNCC(=O)O)s1
55 nM | 4 nM | NS(=O)(=O)c1nnc(NC(=O)CN(CCOCCOCCN(CC(=O)O)CC(=O)Nc2nnc(S(N)(=O)=O)s2)CC(=O)O)s1 [listing 1 of 2 here]
3500 nM | 256 nM | NS(=O)(=O)c1ccc(CNC(=O)CN(CC(=O)O)CC(=O)O)cc1
9500 nM | 400 nM | NS(=O)(=O)c1ccc(NNC(=O)CN(CCOCCOCCN(CC(=O)O)CC(=O)NNc2ccc(S(N)(=O)=O)cc2)CC(=O)O)cc1
9200 nM | 800 nM | NS(=O)(=O)c1ccccc1NC(=O)CN(CCN(CC(=O)O)CC(=O)O)CC(=O)O
27 nM | 8 nM | NS(=O)(=O)c1nnc(NC(=O)CN(CCOCCOCCN(CC(=O)O)CC(=O)Nc2nnc(S(N)(=O)=O)s2)CC(=O)O)s1 [listing 2 of 2 here]
32700 nM | 980 nM | NS(=O)(=O)c1ccc(NNC(=O)CNCC(=O)O)cc1
210 nM | 31 nM | NS(=O)(=O)c1ccc(NC(=O)CN(CCOCCOCCN(CC(=O)O)CC(=O)O)CC(=O)O)c(F)c1
6150 nM | 400 nM | NS(=O)(=O)c1cccc(NC(=O)CN(CCOCCOCCN(CC(=O)O)CC(=O)Nc2cccc(S(N)(=O)=O)c2)CC(=O)O)c1
27000 nM | 1240 nM | NS(=O)(=O)c1ccccc1NC(=O)CNCC(=O)O
76 nM | 20 nM | NS(=O)(=O)c1ccc(NC(=O)CN(CCOCCOCCN(CC(=O)O)CC(=O)Nc2ccc(S(N)(=O)=O)cc2I)CC(=O)O)c(I)c1
250 nM | 105 nM | NS(=O)(=O)c1cc(S(N)(=O)=O)c(NC(=O)CN(CCN(CC(=O)O)c2ccccc2O)c2ccccc2O)c(Cl)c1Cl
12000 nM | 365 nM | NS(=O)(=O)c1ccc(NC(=O)CNCCNCC(=O)O)cc1
760 nM | 300 nM | NS(=O)(=O)c1ccc(CCOC(=O)CN(CCN(CC(=O)O)c2ccccc2O)c2ccccc2O)cc1
21300 nM | 450 nM | NS(=O)(=O)c1ccc(NC(=O)CNCC(=O)O)cc1
345 nM | 100 nM | NS(=O)(=O)c1cc(S(N)(=O)=O)c(NC(=O)CN(CC(=O)O)CC(=O)O)c(Cl)c1Cl
220 nM | 90 nM | NS(=O)(=O)c1ccc(NC(=O)CN(CCN(CC(=O)O)c2ccccc2O)c2ccccc2O)c(I)c1
5600 nM | 320 nM | NS(=O)(=O)c1ccccc1NC(=O)CN(CCOCCOCCN(CC(=O)O)CC(=O)Nc1ccccc1S(N)(=O)=O)CC(=O)O
